Data reported in patent publication US20240350494A1, “THERAPEUTIC MODULATION OF INTEGRINS” (Pliant Therapeutics, Inc., priority 2021, published 2024).
Entries after “also recorded” stand apart in the source; their conditions may differ.

Columns and labels:
[1] = test system: pSmad2/Smad2; assay: Alveolar pSmad2/Smad2 in BAL, 80 mg and 160 mg QD (FIG. 10); format: in vivo, human; details: 80 mg and 160 mg QD (Part 1), p<0.0001
Experimental: Alveolar pSmad2/Smad2 percentage change from baseline at 24 h (Part 1: 80 mg and 160 mg). […] BAL—bronchoalveolar lavage; pSmad2/Smad2—ratio of phosphorylated Smad2 to total Smad2; QD—once daily.

[2] = test system: PRO-C3 and PRO-C6; assay: Phase 2a trial in IPF, serum biomarkers of collagen synthesis; format: in vivo, human; details: IPF participants
Source text: FIG. 27 (PRO—C3 Type III collagen synthesis neoepitope) and FIG. 28 (PRO—C6 TypeVI collagen synthesis neoepitope) compare serum biomarkers of collagen synthesis in Compound 5 groups versus placebo groups. Compound 5 decreased serum biomarkers of collagen synthesis relative to placebo. […] LS=Least Squares, SEM=Standard Error of Mean.

[3] = Phase 2a trial in IPF, pharmacokinetics; format: in vivo, human
Source text: Overall Summary of Safety Pharmacokinetics.

[4] = test system: SMAD3 phosphorylation; assay: Murine bleomycin model, SMAD3 phosphorylation; format: in vivo, mice (C57BL/6); details: bleomycin day 0, oral gavage BID 14 days from day 7 at 1×, 5×, FIG. 2C
Source text: It has been previously shown that inhibition of αVβ6 in the lung can be detected though measurement of phospho-SMAD (pSMAD) in alveolar macrophages. Alveolar macrophages are known to operate in a unique niche in the lung, distinct from interstitial macrophages. SMAD3 is a downstream target of the active TGF-β cytokine binding its receptor and in alveolar macrophages it is phosphorylated by homoeostatic levels of TGF-β. Accordingly, it was desirable to know whether inhibition of TGF-β activation using the disclosed compounds would result in reduced SMAD2 and SMAD3 phosphorylation.
Mice (C57BL/6) were divided into healthy (n=15), vehicle-treated (n=15), and test article-treated (n=15 per dose) groups. Mice in the vehicle and test article-treated groups were administered 3 U/kg of bleomycin (Teva Pharmaceuticals; North Wales, PA) via oropharyngeal aspiration while under anesthesia on day 0. Healthy animals were administered water in a similar fashion. Starting on day 7, mice in the control group were administered PBS vehicle, 130 μL, by oral gavage, BID for 14 days. Also starting on day 7, mice in the test group were administered compound 5 in PBS by oral gavage, BID for 14 days, at relative dosages of 1×, 2.5× and 5×. […] From day 14 through day 21, 9 of the 15 mice were administered ^2H2O for labeling. All mice were sacrificed on day 21 and tissues were collected. […]

[5] = test system: Type I Collagen gene Col1a1 expression; assay: Precision cut lung slices, acute bleomycin exposure, Col1a1 expression; format: cell-based, mice (C57BL/6); details: 3 days culture; integrin inhibitors at IC50 for TGF-beta activation; pan-αV and ALK5 inhibitors at 10× reported IC50; FIG. 3A
Experimental: Mice (C57BL/6) were administered 3 U/kg of bleomycin (Teva Pharmaceuticals; North Wales, PA) on day 0 via oropharyngeal aspiration while under anesthesia. On day 14, precision cut lung slices were obtained. Following euthanization, 2% low gelling temp agarose was injected into the mouse lungs via the trachea. […] The lobes were then subjected to precision slicing to obtain samples for culture using a microtome (Compresstome VF-300-OZ, Precisionary; Greenville, NC). Individual slices were distributed in a multiwell culture plate and cultured for 3 days under control (DMSO) and test compound conditions.

[6] = test system: lung collagen; assay: Murine bleomycin model, collagen deposition; format: in vivo, mice (C57BL/6); details: bleomycin mice
Experimental: Mice (C57BL/6) were divided into healthy (n=15), vehicle-treated (n=15), and test article-treated (n=15 per dose) groups. Mice in the vehicle and test article-treated groups were administered 3 U/kg of bleomycin (Teva Pharmaceuticals; North Wales, PA) via oropharyngeal aspiration while under anesthesia on day 0. Healthy animals were administered water in a similar fashion. Starting on day 7, mice in the control group were administered PBS vehicle, 130 μL, by oral gavage, BID for 14 days. Also starting on day 7, mice in the test group were administered compound 5 in PBS by oral gavage, BID for 14 days, at relative dosages of 1×, 2.5× and 5×. […] From day 14 through day 21, 9 of the 15 mice were administered ^2H2O for labeling. All mice were sacrificed on day 21 and tissues were collected. Samples were prepared for analysis either directly from lung tissue, or by bronchoalveolar lavage, which washes out the bronchiolar and alveolar space with saline to produce a bronchoalveolar lavage fluid (BALF) in which 80-90% of cells are alveolar macrophages.
FIGS. 2F, 2G, and 2H show high resolution second harmonic generation images of fibrillar collagen (collagen type I and III) taken from formalin-fixed paraffin embedded lung tissue sections from a healthy mouse lung (2F), a vehicle-treated mouse lung (2G) and a test-article treated mouse lung (2H; 500 mg/kg BID). Color scale is indicative of collagen fiber density (red=most dense; blue=least dense).
FIG. 2I is a graph showing the percent total collagen area in the second harmonic generation mouse lung images. Large structural areas of collagen found similarly in healthy and fibrotic tissues (dense collagen fibers surrounding airways were excluded from this analysis to focus on interstitial fibrotic collagen). […] The 1×, 2.5×, and 5× dosages were at the same absolute values in mg/kg as in Example B2.

[7] = test system: IPF-derived human lung fibroblasts; assay: LAP adhesion assay, IPF-derived human lung fibroblasts (express αVβ1); format: cell-based; details: LAP-coated plates, cell index, xCELLigence; FIG. 1B
Experimental: Two latency associated peptide (LAP) adhesion binding assays were devised using primary human lung cells, including normal (healthy) human bronchial epithelial cells and human lung fibroblasts (healthy and IPF).
Human lung fibroblasts derived from normal and IPF lung tissue are known to express αVβ1 integrin. The IPF-derived human lung fibroblasts were prepared for the assay by dissociation with trypsin/EDTA, and were seeded at 20,000 cells per well on 96 well plates (ACEA Bioscience E-plate View, Acea Biosciences; San Diego, CA) previously coated with 5 µg/ml of recombinant human LAP (R&D Systems; Minneapolis, MN) and blocked with 4% bovine serum albumin. Cell index (electrical impedance) was measured to assess cell attachment/spreading every 3 minutes for 24 hours at 37° C./5% CO2 using the xCELLigence RTCA MP Instrument (Acea Biosciences; San Diego, CA). […] In the assay, the IPF-derived human lung fibroblasts were separately incubated with: the αVβ1-selective small molecule inhibitor; the selective antibody αVβ6 inhibitor, 3G9; and compound 5.

COCCN(CCCCc1ccc2c(n1)NCCC2)CC[C@H](Nc1ncnc2ccccc12)C(=O)O [Compound 5, (S)-4-((2-methoxyethyl)(4-(5,6,7,8-tetrahydro-1,8-naphthyridin-2-yl)butyl)amino)-2-(quinazolin-4-ylamino)butanoic acid]
Alveolar pSmad2/Smad2 percentage change from baseline at 24 h vs. placebo [1]: statistically significant at both doses | change from baseline of serum PRO-C3 (type III collagen synthesis) vs. placebo ([2]; FIG. 27): decreased; also recorded: reduced in participants receiving Compound 5 vs. placebo (not significant) | change from baseline of serum PRO-C6 (type VI collagen synthesis) vs. placebo ([2]; FIG. 28): decreased; also recorded: reduced in participants receiving Compound 5 vs. placebo (not significant) | dose proportionality of plasma concentrations ([3]; IPF participants, 40-160 mg QD, sparse sampling): generally dose proportional increases; also recorded: increased approximately proportionally with dose | pharmacokinetic profile ([3]; IPF patients, 12-week treatment): favorable pharmacokinetic profile | SMAD3 phosphorylation in lung tissue compared to vehicle-treated mice [4]: substantial, statistically significant dose-dependent reductions | Type I Collagen gene Col1a1 expression, normalized to DMSO control slices [5]: decreased Type I Collagen gene Col1a1 expression substantially | accumulated new collagen (percentage of lung collagen containing 2H-labeled hydroxyproline) ([6]; 1× and 5× BID, FIG. 2D): dose-dependent reduction | total pulmonary collagen (μg of hydroxyproline) ([6]; 1×, […], 5× BID, FIG. 2E): reduction in total pulmonary collagen | total collagen area in second harmonic generation images ([6]; 1×, […], 5× BID, FIG. 2I): substantial, statistically significant dose-dependent reduction | inhibition of cell adhesion in the IPF-derived lung fibroblasts [7]: substantially inhibited
